Data set [1] is described as follows: Dissolution of solid phase cystine by cystine binding drugs in incubation buffer. Conditions: for Regression slope of cystine uptake on drug molarity, BUFFER: incubation buffer, 48 hours, 37° C. The method, then:
(§1) Using the same incubation buffer and cystine-dissolving agent systems as for the initial solid phase dissolution assay given in Example 1, increasing amounts of D-penicillamine, tiopronin, or captopril were added to 25 ml aliquots of the incubation buffer. A fixed amount of cystine was added; for tiopronin and D-penicillamine, about 40 mg, and for captopril about 20 mg. […] Incubation was carried out as in Example 1. After 48 hours, the pellet and supernatant were separated by centrifugation, the pellet was dissolved in 25 ml of cystine-dissolving agent, an alkalinizing buffer of 0.1 M sodium carbonate, pH 9.9, (Sigma Aldrich Corp, Catalog # S-7795), to form a final cystine solution. Cystine concentration was determined both in the supernatant and the final cystine solution according to the procedure given in Example 3. This same protocol was repeated using the ten normal urine samples employed in the basic solid phase dissolution study described in Example 1.
(§2) Cystine concentrations in either the incubation buffer or normal urine after removal of the residual solid phase cystine, or the final cystine solution after the dissolution of the solid phase cystine in a cystine-dissolving agent as shown in Example 1 and 2 were measured using the modified cyanide-nitroprusside method for quantifying urinary cystine concentration as reported by Nakagawa and Coe (Nakagawa, Y. and Coe, F. 1999. Clin Chim Acta 289:57–68). A 100 microliter aliquot was mixed with 400 microliters of water and 1 milliliter of 0.01 M sodium phosphate buffer containing 0.15 mol/liter NaCl, pH 7.3 (PBS). After adding 300 microliters of 10% NaCN aqueous solution (w/v), the sample was incubated for twenty minutes at room temperature. Color was developed by adding 100 microliters of 20% sodium nitroprusside aqueous solution (w/v). Within 20 seconds of the sodium nitroprusside addition, color intensity was then measured at 521 nm using a Beckman spectrophotometer (model DU 640), and cystine concentration was calculated by comparison to a standard curve which was prepared with each assay.
(§3) Routine means and t tests and linear regression analysis used standard statistical software (Systat, SPSS Corp., Chicago, Ill.). Differences in slopes of uptake with drugs were assessed by multivariate analysis in which cystine uptake was the dependent variable; drug molarity, the independent variable; either buffer vs urine or drug type, the categorical variable; and probability of homogeneity of slopes between the groups, defined by the categorical variable tested. Simple regression analysis was used to obtain the actual values of the slopes.

Data set [2] in a line: Dissolution of solid phase cystine by cystine binding drugs in normal urine. Further details: species or system human. Conditions: for molar proportion of cystine dissolved per drug, urine: normal urine; for Regression slope of cystine uptake on drug molarity, URINE: ten normal urine samples, 48 hours, 37° C. How it is done: as §1, §2, §3
For data set [3] the following is noted: general statement; cited from earlier work.

Marks after values point to notes of the source that are not given here.

`CC(C)(S)[C@@H](N)C(=O)O` [D-penicillamine]: in data set [1], the “molar proportion of cystine dissolved per drug, buffer” value (shortened to “molar proportion … per drug, buffer”) is reported as 0.24±0.01 mole/mole and the “Regression slope of cystine uptake on drug molarity, BUFFER” value (shortened to “Regression slope … BUFFER”) stood at 0.25 ± 0.01. Also, in data set [2], the “molar proportion of cystine dissolved per drug, urine” value (shortened to “molar proportion … per drug, urine”) stood at 0.21±0.008 mole/mole and the “Regression slope of cystine uptake on drug molarity, URINE” value (from here on “Regression slope … URINE”) was 0.21 ± 0.01.

For `CC(S)C(=O)NCC(=O)O` (stereo not shown) [tiopronin], in data set [1], the “molar proportion … per drug, buffer” value is on record as 0.41±0.02 mole/mole and the “Regression slope … BUFFER” value is recorded as 0.41 ± 0.02#. In addition, in data set [2], the “molar proportion … per drug, urine” value amounted to 0.36±0.01 mole/mole and the “Regression slope … URINE” value is listed as 0.36 ± 0.01.

As to `C[C@H](CS)C(=O)N1CCC[C@H]1C(=O)O` [captopril], in data set [1], the “molar proportion … per drug, buffer” value is recorded as 0.36±0.04 mole/mole and the “Regression slope … BUFFER” value was 0.36 ± 0.04#. In addition, in data set [2], the “molar proportion … per drug, urine” value came to 0.35±0.01 mole/mole and the “Regression slope … URINE” value was 0.35 ± 0.01#.

As for `N[C@@H](CSSC[C@H](N)C(=O)O)C(=O)O` [cystine], the “solubility of cystine in average normal urine” value in data set [3] was 200 to 400 µg/mL.

These data come from patent US6991937B2, “Urine cystine quantitation and supersaturation assay” (Litholink Corporation, priority 2001, dated 2006).
